Experimental data reported in ChEMBL document CHEMBL2440076, “New triarylpyrazoles as broad-spectrum anticancer agents: design, synthesis, and biological evaluation” (Eur J Med Chem, 2013).

Experiments:
Type in all cases: functional
MDA-MB-231 [1] = assay: Growth inhibition of human MDA-MB-231 cells assessed as cell growth at 5X10'-5 M after 48 hrs by sulforhodamine B assay; conditions: MDA-MB-231, 48 h, read-out: Activity
SF-539 [2] = assay: Growth inhibition of human SF539 cells assessed as cell growth at 5X10'-7 M after 48 hrs by sulforhodamine B assay; conditions: SF-539, 48 h, read-out: Activity
MDA-MB-231 [3] = assay: Growth inhibition of human MDA-MB-231 cells assessed as cell growth at 5X10'-9 M after 48 hrs by sulforhodamine B assay; conditions: MDA-MB-231, 48 h, read-out: Activity
HCT-116 = assay: Growth inhibition of human HCT116 cells assessed as cell growth at 5X10'-6 M after 48 hrs by sulforhodamine B assay; conditions: HCT-116, 48 h, read-out: Activity
MDA-MB-231 [4] = assay: Growth inhibition of human MDA-MB-231 cells assessed as cell growth at 5X10'-7 M after 48 hrs by sulforhodamine B assay; conditions: MDA-MB-231, 48 h, read-out: Activity
DU-145 [5] = assay: Growth inhibition of human DU145 cells assessed as cell growth at 5X10'-9 M after 48 hrs by sulforhodamine B assay; conditions: DU-145, 48 h, read-out: Activity
BT-549 [6] = assay: Growth inhibition of human BT549 cells assessed as cell growth at 5X10'-8 M after 48 hrs by sulforhodamine B assay; conditions: BT-549, 48 h, read-out: Activity
BT-549 [7] = assay: Growth inhibition of human BT549 cells assessed as cell growth at 5X10'-9 M after 48 hrs by sulforhodamine B assay; conditions: BT-549, 48 h, read-out: Activity
T47D [8] = assay: Growth inhibition of human T47D cells assessed as cell growth at 5X10'-9 M after 48 hrs by sulforhodamine B assay; conditions: read-out: Activity
DU-145 [9] = assay: Growth inhibition of human DU145 cells assessed as cell growth at 5X10'-8 M after 48 hrs by sulforhodamine B assay; conditions: DU-145, 48 h, read-out: Activity
SK-MEL-28 [10] = assay: Growth inhibition of human SK-MEL-28 cells assessed as cell growth at 5X10'-9 M after 48 hrs by sulforhodamine B assay; conditions: SK-MEL-28, 48 h, read-out: Activity
T47D [11] = assay: Growth inhibition of human T47D cells assessed as cell growth at 5X10'-8 M after 48 hrs by sulforhodamine B assay; conditions: read-out: Activity
SK-MEL-2 [12] = assay: Growth inhibition of human SK-MEL-2 cells assessed as cell growth at 5X10'-8 M after 48 hrs by sulforhodamine B assay; conditions: SK-MEL-2, 48 h, read-out: Activity
OVCAR-5 [13] = assay: Growth inhibition of human OVCAR5 cells assessed as cell growth at 5X10'-7 M after 48 hrs by sulforhodamine B assay; conditions: OVCAR-5, 48 h, read-out: Activity
SK-OV-3 [14] = assay: Growth inhibition of human SKOV3 cells assessed as cell growth at 5X10'-8 M after 48 hrs by sulforhodamine B assay; conditions: SK-OV-3, 48 h, read-out: Activity
MDA-MB-435 = assay: Growth inhibition of human MDA-MB-435 cells assessed as cell growth at 5X10'-5 M after 48 hrs by sulforhodamine B assay; conditions: MDA-MB-435, 48 h, read-out: Activity
SK-OV-3 [15] = assay: Growth inhibition of human SKOV3 cells assessed as cell growth at 5X10'-7 M after 48 hrs by sulforhodamine B assay; conditions: SK-OV-3, 48 h, read-out: Activity
OVCAR-4 = assay: Growth inhibition of human OVCAR4 cells assessed as cell growth at 5X10'-7 M after 48 hrs by sulforhodamine B assay; conditions: OVCAR-4, 48 h, read-out: Activity
NCI-H226 = assay: Growth inhibition of human NCI-H226 cells assessed as cell growth at 5X10'-6 M after 48 hrs by sulforhodamine B assay; conditions: NCI-H226, 48 h, read-out: Activity
A549 = assay: Growth inhibition of human A549/ATCC cells assessed as cell growth at 5X10'-8 M after 48 hrs by sulforhodamine B assay; conditions: A549, 48 h, read-out: Activity
SF-295 = assay: Growth inhibition of human SF295 cells assessed as cell growth at 5X10'-9 M after 48 hrs by sulforhodamine B assay; conditions: SF-295, 48 h, read-out: Activity
SF-539 [16] = assay: Growth inhibition of human SF539 cells assessed as cell growth at 5X10'-9 M after 48 hrs by sulforhodamine B assay; conditions: SF-539, 48 h, read-out: Activity
HL-60(TB) = assay: Growth inhibition of human HL-60(TB) cells assessed as cell growth at 5X10'-6 M after 48 hrs by sulforhodamine B assay; conditions: HL-60, 48 h, read-out: Activity
SN12C = assay: Growth inhibition of human SN12C cells assessed as cell growth at 5X10'-8 M after 48 hrs by sulforhodamine B assay; conditions: read-out: Activity
OVCAR-3 = assay: Growth inhibition of human OVCAR3 cells assessed as cell growth at 5X10'-7 M after 48 hrs by sulforhodamine B assay; conditions: OVCAR-3, 48 h, read-out: Activity
M14 = assay: Growth inhibition of human M14 cells assessed as cell growth at 5X10'-5 M after 48 hrs by sulforhodamine B assay; conditions: M14, 48 h, read-out: Activity
LOX IMVI = assay: Growth inhibition of human LOXIMVI cells assessed as cell growth at 5X10'-5 M after 48 hrs by sulforhodamine B assay; conditions: read-out: Activity
SK-MEL-28 [17] = assay: Growth inhibition of human SK-MEL-28 cells assessed as cell growth at 5X10'-7 M after 48 hrs by sulforhodamine B assay; conditions: SK-MEL-28, 48 h, read-out: Activity
SNB-19 = assay: Growth inhibition of human SNB19 cells assessed as cell growth at 5X10'-7 M after 48 hrs by sulforhodamine B assay; conditions: SNB-19, 48 h, read-out: Activity
SK-MEL-2 [18] = assay: Growth inhibition of human SK-MEL-2 cells assessed as cell growth at 5X10'-7 M after 48 hrs by sulforhodamine B assay; conditions: SK-MEL-2, 48 h, read-out: Activity
OVCAR-5 [19] = assay: Growth inhibition of human OVCAR5 cells assessed as cell growth at 5X10'-9 M after 48 hrs by sulforhodamine B assay; conditions: OVCAR-5, 48 h, read-out: Activity
SW-620 = assay: Growth inhibition of human SW620 cells assessed as cell growth at 5X10'-5 M after 48 hrs by sulforhodamine B assay; conditions: SW-620, 48 h, read-out: Activity
NCI-H322M = assay: Growth inhibition of human NCI-H322M cells assessed as cell growth at 5X10'-5 M after 48 hrs by sulforhodamine B assay; conditions: read-out: Activity
786-0 = assay: Growth inhibition of human 786-0 cells assessed as cell growth at 5X10'-9 M after 48 hrs by sulforhodamine B assay; conditions: 786-0, 48 h, read-out: Activity
SF-268 = assay: Growth inhibition of human SF268 cells assessed as cell growth at 5X10'-7 M after 48 hrs by sulforhodamine B assay; conditions: SF-268, 48 h, read-out: Activity
CAKI-1 = assay: Growth inhibition of human CAKI-1 cells assessed as cell growth at 5X10'-5 M after 48 hrs by sulforhodamine B assay; conditions: CAKI-1, 48 h, read-out: Activity
HCT-15 = assay: Growth inhibition of human HCT15 cells assessed as cell growth at 5X10'-7 M after 48 hrs by sulforhodamine B assay; conditions: HCT-15, 48 h, read-out: Activity

SMILES	growth at 50 µM (MDA-MB-231 [1])	growth at 0.5 µM (SF-539 [2])	growth at 0.005 µM (MDA-MB-231 [3])	growth at 5 µM (HCT-116)	growth at 0.5 µM (MDA-MB-231 [4])	growth at 0.005 µM (DU-145 [5])	growth at 0.05 µM (BT-549 [6])	growth at 0.005 µM (BT-549 [7])	growth at 0.005 µM (T47D [8])	growth at 0.05 µM (DU-145 [9])	growth at 0.005 µM (SK-MEL-28 [10])	growth at 0.05 µM (T47D [11])	growth at 0.05 µM (SK-MEL-2 [12])	growth at 0.5 µM (OVCAR-5 [13])	growth at 0.05 µM (SK-OV-3 [14])	growth at 50 µM (MDA-MB-435)	growth at 0.5 µM (SK-OV-3 [15])	growth at 0.5 µM (OVCAR-4)	growth at 5 µM (NCI-H226)	growth at 0.05 µM (A549)	further results
COc1cc(-c2nn(-c3cccc(NC(=O)Nc4ccc(Cl)c(Cl)c4)c3)cc2-c2ccncc2)ccc1Cl	-54%	78%	92%	6%	66%	103%	104%	104%	97%	110%	106%	101%	112%	89%	106%	-31%	105%	81%	8%	92%	growth at 0.005 µM (SF-295): 93%; growth at 0.005 µM (SF-539 [16]): 94%; growth at 5 µM (HL-60(TB)): 6%; growth at 0.05 µM (SN12C): 94%; growth at 0.5 µM (OVCAR-3): 64%; growth at 50 µM (M14): -52%; growth at 50 µM (LOX IMVI): -45%; growth at 0.5 µM (SK-MEL-28 [17]): 91%; growth at 0.5 µM (SNB-19): 84%; growth at 0.5 µM (SK-MEL-2 [18]): 107%; growth at 0.005 µM (OVCAR-5 [19]): 93%; growth at 50 µM (SW-620): 7%; growth at 50 µM (NCI-H322M): 6%; growth at 0.005 µM (786-0): 100%; growth at 0.5 µM (SF-268): 89%; growth at 50 µM (CAKI-1): -13%; growth at 0.5 µM (HCT-15): 76%
COc1cc(-c2nn(-c3cccc(NC(=O)Nc4cccc(C(F)(F)F)c4)c3)cc2-c2ccncc2)ccc1Cl	-56%	79%	103%	3%	73%	105%	96%	98%	95%	101%	100%	98%	98%	80%	99%	-63%	102%	73%	7%	97%	growth at 0.005 µM (SF-295): 96%; growth at 0.005 µM (SF-539 [16]): 95%; growth at 5 µM (HL-60(TB)): 4%; growth at 0.05 µM (SN12C): 97%; growth at 0.5 µM (OVCAR-3): 56%; growth at 50 µM (M14): -64%; growth at 50 µM (LOX IMVI): -86%; growth at 0.5 µM (SK-MEL-28 [17]): 87%; growth at 0.5 µM (SNB-19): 74%; growth at 0.5 µM (SK-MEL-2 [18]): 97%; growth at 0.005 µM (OVCAR-5 [19]): 84%; growth at 50 µM (SW-620): -6%; growth at 50 µM (NCI-H322M): -14%; growth at 0.005 µM (786-0): 95%; growth at 0.5 µM (SF-268): 87%; growth at 50 µM (CAKI-1): -21%; growth at 0.5 µM (HCT-15): 66%
O=C(Nc1cccc(-n2cc(-c3ccncc3)c(-c3ccc(Cl)c(O)c3)n2)c1)c1ccc(N2CCOCC2)c(C(F)(F)F)c1	-8%	73%	96%	35%	67%	98%	101%	100%	97%	97%	104%	101%	98%	98%	98%	1%	106%	112%	100%	101%	growth at 0.005 µM (SF-295): 93%; growth at 0.005 µM (SF-539 [16]): 92%; growth at 5 µM (HL-60(TB)): 39%; growth at 0.05 µM (SN12C): 98%; growth at 0.5 µM (OVCAR-3): 106%; growth at 50 µM (M14): -50%; growth at 50 µM (LOX IMVI): -53%; growth at 0.5 µM (SK-MEL-28 [17]): 91%; growth at 0.5 µM (SNB-19): 105%; growth at 0.5 µM (SK-MEL-2 [18]): 102%; growth at 0.005 µM (OVCAR-5 [19]): 98%; growth at 50 µM (SW-620): -31%; growth at 50 µM (NCI-H322M): 56%; growth at 0.005 µM (786-0): 94%; growth at 0.5 µM (SF-268): 104%; growth at 50 µM (CAKI-1): -15%; growth at 0.5 µM (HCT-15): 91%
